Experimental data published in article PMC1810525, “Antagonism of the prostaglandin D2 receptor CRTH2 attenuates asthma pathology in mouse eosinophilic airway inflammation” (Respiratory Research, 2007).

Columns and labels:
[1] = target: T1, mTP (Mus musculus, UniProt P30987); assay: mTP whole cell competition binding ([3H]SQ29548); settings: displacement of [3H]SQ29548, HEK cells transfected with mTP
T1 construct: expressed in transfected cells; host or cells: HEK293 (transient, pcDNA3.1(+))
T1 sequence (P30987 1-341): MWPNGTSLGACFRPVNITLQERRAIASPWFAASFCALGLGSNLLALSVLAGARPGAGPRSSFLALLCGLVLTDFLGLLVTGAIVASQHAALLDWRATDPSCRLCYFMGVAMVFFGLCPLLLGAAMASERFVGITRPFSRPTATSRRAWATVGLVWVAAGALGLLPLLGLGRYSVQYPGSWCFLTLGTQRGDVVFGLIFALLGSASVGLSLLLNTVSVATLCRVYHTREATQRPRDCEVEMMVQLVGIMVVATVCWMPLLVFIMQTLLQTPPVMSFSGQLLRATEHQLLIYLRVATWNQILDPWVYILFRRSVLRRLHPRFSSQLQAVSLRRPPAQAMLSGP
From the text: (§1) The coding sequence of mCRTH2 (genbank accession no. AF054507) was amplified by PCR from mouse hippocampus cDNA and inserted into the pcDNA3.1(+) expression vector (invitrogen). A HEK293 cell line, stably expressing mCRTH2 (hereafter referred to as mCRTH2-HEK cells) was generated under G418 (Gibco #11811) selection and used as described below in whole cell binding and functional inositol phosphate accumulation assays. The coding sequence of mTP (genbank accession no. D10849) was amplified by PCR from mouse spleen cDNA and inserted into pcDNA3.1(+). HEK293 cells were transiently transfected with mTP as described and assayed after 48 hr as outlined below.
Binding assays were performed essentially as described previously. […] Total and nonspecific binding were determined in the absence and presence of 10 μM PGD2 for mCRTH2 and 10 μM U46619 for mTXA2 receptors.
was performed using the Prism 3.0 software (GraphPad Software, San Diego) as described previously with the following exceptions: Binding data from competition binding assays were normalized to percent of specific binding of [^3H]PGD2 or [^3H]SQ29548 and the Ki was then determined using the Cheng-Prusoff equation Ki = IC50/(1+L/Kd), where L is the concentration of radioactive ligand and Kd is its dissociation constant. […]

[2] = target: T2, mCRTH2 (Mus musculus, UniProt Q9Z2J6); assay: Inositol phosphate accumulation assay, mCRTH2-HEK cells (Schild analysis vs PGD2); assay type: cell-based; settings: PGD2 concentration-response, InsP
T2 construct: expressed in transfected cells
T2 sequence (Q9Z2J6 1-382): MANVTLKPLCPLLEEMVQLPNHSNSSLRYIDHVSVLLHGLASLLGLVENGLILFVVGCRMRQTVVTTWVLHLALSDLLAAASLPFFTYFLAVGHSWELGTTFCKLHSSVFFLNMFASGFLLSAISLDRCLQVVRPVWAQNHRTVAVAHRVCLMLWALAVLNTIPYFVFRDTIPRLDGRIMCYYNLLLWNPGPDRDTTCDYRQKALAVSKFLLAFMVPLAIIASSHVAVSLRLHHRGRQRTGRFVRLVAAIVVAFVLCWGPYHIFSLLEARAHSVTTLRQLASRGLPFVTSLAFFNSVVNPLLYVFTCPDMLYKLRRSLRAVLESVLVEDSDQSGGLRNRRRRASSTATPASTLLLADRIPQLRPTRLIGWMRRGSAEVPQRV
From the text: as §1
mCRTH2-HEK or HEK cells transiently transfected with mTP were seeded at a density of 30.000 cells/well in poly-D-lysine coated 96-well tissue culture plates and labeled by overnight incubation in medium containing 5 μCi myo- [2-^3H]-inositol (TRK911, Amersham Biosciences). After washing, cells were stimulated with the respective ligands in the presence of 5 mM LiCl (HBSS, GIBCO cat. 14025–050, 45 min, 37°C) and the inositol phosphate fraction was quantified using a scintillation proximity assay (SPA) as described previously. To facilitate inositol phosphate generation by the Gi-selective CRTH2 receptor, mCRTH2-HEK cells were transiently transfected with a promiscuous Gα protein [29].
was performed using the Prism 3.0 software (GraphPad Software, San Diego) as described previously with the following exceptions: Binding data from competition binding assays were normalized to percent of specific binding of [^3H]PGD2 or [^3H]SQ29548 and the Ki was then determined using the Cheng-Prusoff equation Ki = IC50/(1+L/Kd), where L is the concentration of radioactive ligand and Kd is its dissociation constant. For Schild analysis, global fitting using the Gaddum/Schild competitive interaction model was applied after the functional concentration-response curves for the agonists PGD2 or U46619 in the absence or presence of various antagonist concentrations were normalized to percent of the maximal response obtained by agonist alone.

[3] = tested on: OVA-challenged BALB/c mice; assay: Mouse model of allergic asthma (OVA), lung tissue eosinophils and mucus cells histology; assay type: in vivo; settings: 5 mg/kg orally twice daily days 14 and 15, OVA-challenged mice, 24 hr after last challenge; p < 0.05 vs vehicle
Method: Female BALB/c mice about 6 weeks of age (MoB A/S; Ry, Denmark) were kept in well-controlled animal housing facilities and fed ad libitum. The study was approved by the Regional Ethics Committee in Malmoe-Lund, Sweden. All groups of mice (n = 10 in each group) were immunized by intraperitoneal (i.p) injections of ovalbumin (OVA, 10 μg per injection; grade V, Sigma, St Louis, Mo) absorbed to alum adjuvant (Al(OH)3; Sigma) at day 0 as described previously. […] Control animals received saline challenge. Animals were sacrificed 24 hr after the last allergen challenge by pentobarbital i.p followed by bronchoalveolar lavage (BAL) and lung tissue sampling. In preliminary studies it was ascertained that daily allergen challenges for only a few days sufficed to produce a significant airway tissue eosinophilia as well as goblet cell hyperplasia. On days 14 and 15 mice were treated twice daily with TM30089 and ramatroban (BAY3405), 5 mg/kg orally. […] Drugs were administered 30 minutes before and 4 hr after each challenge. The dose of ramatroban was selected in accord with previous reports. Furthermore, ramatroban and TM30089 differ chemically merely by the move of one carbon atom from the carboxyl side chain in ramatroban to the sulfonamide nitrogen in TM30089 - thus they have the same molecular weight and other important structural features in common - so it is highly reasonable to assume they will have very similar PK properties. […] Eosinophils were detected by histochemical visualization of cyanide-resistant eosinophil peroxidase (EPO) activity. In brief, 5 μm cryo sections were incubated for 8 min at room temperature in PBS buffer (pH 7.4) supplemented with 3.3-diaminobenzidine tetrahydrochloride (60 mg/100 ml; Sigma), 30% H2O2 (0.3 ml/100 ml), and NaCN (120 mg/100 ml). Slides were then rinsed in tap water and mounted in […] medium (Merck, Darmstadt, Germany). […] Although the focus in this study was on tissue pathology BAL was also carried out (see below). Histology analyses were performed and quantified in a blinded manner. To compare histological data, the non-parametric Kruskal-Wallis test and followed by Connover's test was applied using Analyze ItTM (Analyse-it software Ltd., Leeds, UK). Data are expressed as mean ± SEM. A value of p < 0.05 was considered statistically significant.

Compound | pKi mTP [1] | Schild slope mCRTH2 [2] | pA2 mCRTH2 [2] | allergen challenge-induced mucus cell hyperplasia [3] | allergen challenge-induced peribronchial lung tissue eosinophilia [3] | Ki ([1]; read-out: pKi mTP (converted)) [nM] | Kb ([2]; read-out: pA2 mCRTH2 (converted)) [nM]
CN(C1CCc2c(c3ccccc3n2CC(=O)O)C1)S(=O)(=O)c1ccc(F)cc1 (stereo not shown) [TM30089] | 5.30 ± 0.03 | 1.45 ± 0.08 | 9.15 ± 0.11 | significantly diminished | significantly diminished | – | –
O=C(O)CCn1c2c(c3ccccc31)C[C@H](NS(=O)(=O)c1ccc(F)cc1)CC2 [ramatroban, reference compound] | – | 0.94 ± 0.05 | – | significantly diminished | significantly diminished | 1.2 | 8.32
